Literature values as cited in patent publication US8398606B2, “Folded perineal pad” (QuantrRx Biomedical Corporation, priority 2007, dated 2013).

Parameters: dose or concentration left out as unconfirmed
Details: ILP system releasing of estradiol as its 3-acetate ester, in HRT; maintained level

## C[C@]12CC[C@@H]3c4ccc(O)cc4CC[C@H]3[C@@H]1CC[C@@H]2O [estradiol]
  circulating plasma concentration of the drug: 300 pmol/L
